Test results as given in EP0293500A1, “3-heteroalkyl-2,4.quinzaoline-diones” (AMERICAN CYANAMID COMPANY, priority 1987, dated 1988).

Key:
thromboxane synthetase = target: T1, thromboxane synthetase (Rattus norvegicus, UniProt P49430); experiment: Inhibition of thromboxane (TX) formation (TXB2 radioimmunoassay) in washed rat platelets; format: cell-based, Okamoto-Aoki spontaneously hypertensive rats (SHR); details: percent inhibition of TXB2 formation; drug at 10^-4M; SHR platelet suspension, 10 minutes at 37 C
T1 construct: The platelets were isolated by centrifuging the PRP for 10 minutes at 1060xg; from tissue; host or cells: washed blood platelets from Okamoto-Aoki spontaneously hypertensive rats (SHR)
T1 sequence (P49430 1-533): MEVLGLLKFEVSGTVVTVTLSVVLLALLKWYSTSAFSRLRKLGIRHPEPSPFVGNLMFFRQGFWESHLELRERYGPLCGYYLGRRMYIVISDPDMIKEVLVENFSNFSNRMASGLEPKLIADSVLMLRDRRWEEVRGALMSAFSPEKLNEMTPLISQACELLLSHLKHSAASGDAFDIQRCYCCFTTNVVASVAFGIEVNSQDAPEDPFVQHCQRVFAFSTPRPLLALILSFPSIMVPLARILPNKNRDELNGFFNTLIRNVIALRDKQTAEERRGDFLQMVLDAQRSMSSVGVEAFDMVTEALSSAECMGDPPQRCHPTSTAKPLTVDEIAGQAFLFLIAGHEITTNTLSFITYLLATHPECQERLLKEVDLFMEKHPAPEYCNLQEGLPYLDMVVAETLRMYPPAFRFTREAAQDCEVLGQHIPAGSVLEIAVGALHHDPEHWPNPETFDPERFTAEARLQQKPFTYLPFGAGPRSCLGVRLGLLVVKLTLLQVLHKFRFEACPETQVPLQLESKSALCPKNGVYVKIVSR
From the text: The platelet rich plasma (PRP) was separated. […] The inhibition of thromboxane (TX) formation was studied by determing the concentration of thromboxane […] (TXB2), the stable hydrolysis product of TXA2.

[1] = tested on: spontaneously hypertensive rats of the Okamoto strain; experiment: Hypotensive activity in spontaneously hypertensive rats (method of Chan and Poorvin); format: in vivo; details: male SHR, average MABP 160±1.5 mm of mercury; gavage, 100 mg/kg or less, second identical dose 24 hours later; MABP at 28 hours after the initial dose; number of rats in brackets
Procedure: The novel compounds of the present invention are also active hypotensive agents and were tested for hypotensive activity by the method of P. S. Chan and b. Poorvin, Clinical and Experimental Hypertension, 1 (6), 817-830 (1979). Male, 16 week old, spontaneously hypertensive rats of the Okamoto strain, from Taconic Farms, Germantown, New York having an average mean arterial blood pressure of 160±1.5 mm of mercury were used in the test. […] A second identical dose of the test compound, without sodium chloride loading is given 24 hours later. At 28 hours after the initial dose, the mean arterial blood pressure (MABP) is measured by the method of Chan and Poorvin vide supra. The procedure is repeated in a second and third rat when necessary. The results of this test on representative compounds of the present invention appear in Table II below.

O=c1c2cc(Cl)ccc2nnn1CCCCCCCCn1ccnc1 [6-Chloro-3-[8-(1H-imidazol-1-yl)octyl]-1,2,3-benzotriazin-4(3H)-one, monohydro-chloride]
inhibition at 100 µM (thromboxane synthetase): 90% | MABP/mm Hg (no. of rats) [1]: 116(2) mm Hg

O=c1[nH]c2ccccc2c(=O)n1CCCn1ccnc1 [Example 10, 3-[3-(1 H-Imidazol-1-yl)propyl]-2,4-(1H,3H)-quinazolinedione]
inhibition at 100 µM (thromboxane synthetase): 76% | MABP/mm Hg (no. of rats) [1]: 131(3) mm Hg

O=c1[nH]c2ccccc2c(=O)n1CCCCn1ccnc1 [Example 11, 3-[4-(1H-Imidazol-1-yl)butyl]-2,4(1H,3H)-quinazolinedione]
inhibition at 100 µM (thromboxane synthetase): 100% | MABP/mm Hg (no. of rats) [1]: 108(2) mm Hg

O=c1[nH]c2ccc(Br)cc2c(=O)n1CCCCn1ccnc1 [Example 12, 6-Bromo-3-[4-(1H-imidazol-1-yl)butyl]-2,4(1H,3H)-quinazolinedione]
inhibition at 100 µM (thromboxane synthetase): 98% | MABP/mm Hg (no. of rats) [1]: 107(2) mm Hg

Cc1ccc2[nH]c(=O)n(CCC(C)n3ccnc3)c(=O)c2c1 (centres unmarked) [Example 17, 3-[3-(1H-Imidazol-1-yl)butyl]-6-methyl-2,4(1H,3H)-quinazolinedione]
inhibition at 100 µM (thromboxane synthetase): 88% | MABP/mm Hg (no. of rats) [1]: 111(2) mm Hg

O=c1[nH]c2ccccc2c(=O)n1CCCCCn1ccnc1 [Example 18, 3-[5-(1 H-Imidazol-1-yl)pentyl]-2,4(1H,3H)-quinazolinedione]
inhibition at 100 µM (thromboxane synthetase): 98% | MABP/mm Hg (no. of rats) [1]: 104(2) mm Hg

Cc1cn(CCCn2c(=O)[nH]c3ccccc3c2=O)cn1 [Example 19, 3-[3-(4-Methyl-1H-imidazol-1-yl)propyl]-2,4(1H,3H)-quinazolinedione]
inhibition at 100 µM (thromboxane synthetase): 98% | MABP/mm Hg (no. of rats) [1]: 135(3) mm Hg

CC(CCn1c(=O)[nH]c2ccccc2c1=O)n1ccnc1 (centres unmarked) [Example 20, 3-[3-(1H-Imidazol-1-yl)butyl]-2,4(1H,3H)-quinazolinedione]
inhibition at 100 µM (thromboxane synthetase): 100% | MABP/mm Hg (no. of rats) [1]: 121(3) mm Hg

CC(Cn1ccnc1)Cn1c(=O)[nH]c2ccccc2c1=O (centres unmarked) [Example 21, 3-[3-(1H-Imidazol-1-yl)-2-methylpropyl]-2,4(1H,3H)-quinazolinedione]
inhibition at 100 µM (thromboxane synthetase): 100% | MABP/mm Hg (no. of rats) [1]: 112(2) mm Hg

O=c1[nH]c2ccc(Cl)cc2c(=O)n1CCCCn1ccnc1 [Example 24, 6-Chloro-3-[4-(1H-imidazol-1-yl)butyl]-2,4(1H,3H)-quinazolinedione]
inhibition at 100 µM (thromboxane synthetase): 93% | MABP/mm Hg (no. of rats) [1]: 106(2) mm Hg

Cc1cn(CCCn2c(=O)[nH]c3ccc(Cl)cc3c2=O)cn1 [Example 26, 6-Chloro-3-[3-(4-methyl-1H-imidazol-1-yl)-propyl]-2,4(1H,3H)-quinazolinedione]
inhibition at 100 µM (thromboxane synthetase): 99% | MABP/mm Hg (no. of rats) [1]: 125(3) mm Hg

Cc1cn(CCCCn2c(=O)[nH]c3ccc(Cl)cc3c2=O)cn1 [Example 28, 6-Chloro-3-[4-(4-methyl-1H-imidazol-1-yl)butyl]-2,4(1H,3H)-quinazolinedione]
inhibition at 100 µM (thromboxane synthetase): 70% | MABP/mm Hg (no. of rats) [1]: 118(2) mm Hg

CC(CCn1c(=O)[nH]c2ccc(Cl)cc2c1=O)n1ccnc1 (centres unmarked) [Example 30, 6-Chloro-3-[3-(1H-imidazol-1-yl)-butyl]-2,4(1H,3H)-quinazolinedione]
inhibition at 100 µM (thromboxane synthetase): 98% | MABP/mm Hg (no. of rats) [1]: 113(2) mm Hg

CC(Cn1ccnc1)Cn1c(=O)[nH]c2ccc(Cl)cc2c1=O (centres unmarked) [Example 31, 6-Chloro-3-[3-(1H-imidazol-1-yl)-2-methylpropyl]-2,4(1H,3H)-quinazolinedione]
inhibition at 100 µM (thromboxane synthetase): 100% | MABP/mm Hg (no. of rats) [1]: 126(3) mm Hg

O=c1[nH]c2cc(Cl)ccc2c(=O)n1CCCCn1ccnc1 [Example 40, 7-Chloro-3-[4-(1H-imidazol-1-yl)butyl]-2,4(1H,3H)-quinazolinedione]
inhibition at 100 µM (thromboxane synthetase): 59% | MABP/mm Hg (no. of rats) [1]: 102(2) mm Hg

CC(CCn1c(=O)[nH]c2cc(Cl)ccc2c1=O)n1ccnc1 (centres unmarked) [Example 41, 7-Chloro-3-[3-(1H-imidazol-1-yl)butyl]-2,4(1H,3H)-quinazolinedione]
inhibition at 100 µM (thromboxane synthetase): 51% | MABP/mm Hg (no. of rats) [1]: 128(2) mm Hg
